In experiment [1] the target is full-length BTK C481S enzyme (Homo sapiens (Human), UniProt Q06187, C481S). Nature of the experiment: Biochemical kinase assay BTK C481S (IMAP). How it is done:
Biochemical kinase assay BTK […] To determine the inhibitory activity of compounds on BTK C481S enzyme activity, the IMAP® assay (Molecular Devices) was used. […] After pre-incubation of 1 hour in the dark at room temperature, fluorescein-labeled MBP-derived substrate peptide (Molecular Devices, cat. no. RP 7123) was added, followed by ATP to start the reaction. Final enzyme concentration was 1.2 nM final substrate concentration 50 nM, and final ATP concentration was 7 μM. The reaction was allowed to proceed for 2 hours at room temperature in the dark. The reaction was stopped by quenching with IMAP progressive binding solution according to the protocol of the manufacturer (Molecular Devices). Fluorescein polarization was measured on an Envision multimode reader (Perkin Elmer, Waltham, MA, U.S.A.). IC50 were calculated using XLfitTM5 software (ID Business Solutions, Ltd., Surrey, U.K.). Results of the BTK […] binding affinity are shown in Table 1 below. • IC50 BTK […]: […]

In a further experiment the test system is REC-1 T474I cell lines. Nature of the experiment: Cell proliferation assay REC-1 BTK T474I knock-in cells (ATPlite, 72 hours). The format is cell-based. The following applies: Homo sapiens, Rec1; 72 hours; read-out: IC50 REC-1 T474I. How it is done: Cell proliferation assay Generation of BTK […] knock-in cell lines wt-REC-1 cell lines expressing mutant BTK were created at Synthego Corporation. Cell lines expressing BTK […] was generated via CRISPR/Cas9. Monoclonal REC-1 […] cell lines were obtained by single cell cloning. The mutation status of all cell lines was confirmed via sequencing. […] Luminescence was recorded on an Envision multimode reader. The cell signal at the start of incubation was recorded separately in order to distinguish between cell population growth and cell death. In addition, maximum growth was determined by incubation of a duplicate without compound in the presence of 0.3% DMSO. Percentage growth was used as the main y-axis signal.
In general terms: In ATP-based viability assays light output follows the ATP content of the culture.

The test system of experiment [2] is wt-REC-1 mantle cell lymphoma cells. Nature of the experiment: Cell proliferation assay wt-REC-1 (ATPlite, 72 hours). The format is cell-based. Particulars: 72 h; read-out: IC50 wt-REC-1. How it is done:
Results of the BTK […] binding affinity are shown in Table 1 below. • IC50 BTK […]: […] wt-REC-1 mantle cell lymphoma cells were purchased from American Type Culture Collection via Synthego Corporation (cat. no. CRL-3004, ATCC). […] Luminescence was recorded on an Envision multimode reader. The cell signal at the start of incubation was recorded separately in order to distinguish between cell population growth and cell death. In addition, maximum growth was determined by incubation of a duplicate without compound in the presence of 0.3% DMSO. Percentage growth was used as the main y-axis signal. IC50s were fitted by non-linear regression using IDBS XLfitTM5 using a 4-parameter logistic curve, yielding a maximum signal, minimum signal, hill-parameter and IC50. Results of the wt-REC-1 proliferation are shown in Table 1 below. • IC50 wt-REC-1: […]

The target of experiment [3] is full-length wt-BTK enzyme (Homo sapiens (Human), UniProt Q06187). Nature of the experiment: Biochemical kinase assay wt-BTK (IMAP). On the procedure: Biochemical kinase assay wt-BTK To determine the inhibitory activity of compounds on wt-BTK enzyme activity, the IMAP® assay (Molecular Devices) was used. […] After pre-incubation of 1 hour in the dark at room temperature, fluorescein-labeled MBP-derived substrate peptide (Molecular Devices, cat. no. RP 7123) was added, followed by ATP to start the reaction. Final enzyme concentration was 1.2 nM, final substrate concentration 50 nM, and final ATP concentration was 4 μM. The reaction was allowed to proceed for 2 hours at room temperature in the dark. The reaction was stopped by quenching with IMAP progressive binding solution according to the protocol of the manufacturer (Molecular Devices). Fluorescein polarization was measured on an Envision multimode reader (Perkin Elmer, Waltham, MA, U.S.A.). […] Results of the wt-BTK binding affinity are shown in Table 1 below. • IC50 wt-BTK: […]
Sequence of full-length wt-BTK enzyme (Q06187 whole entry): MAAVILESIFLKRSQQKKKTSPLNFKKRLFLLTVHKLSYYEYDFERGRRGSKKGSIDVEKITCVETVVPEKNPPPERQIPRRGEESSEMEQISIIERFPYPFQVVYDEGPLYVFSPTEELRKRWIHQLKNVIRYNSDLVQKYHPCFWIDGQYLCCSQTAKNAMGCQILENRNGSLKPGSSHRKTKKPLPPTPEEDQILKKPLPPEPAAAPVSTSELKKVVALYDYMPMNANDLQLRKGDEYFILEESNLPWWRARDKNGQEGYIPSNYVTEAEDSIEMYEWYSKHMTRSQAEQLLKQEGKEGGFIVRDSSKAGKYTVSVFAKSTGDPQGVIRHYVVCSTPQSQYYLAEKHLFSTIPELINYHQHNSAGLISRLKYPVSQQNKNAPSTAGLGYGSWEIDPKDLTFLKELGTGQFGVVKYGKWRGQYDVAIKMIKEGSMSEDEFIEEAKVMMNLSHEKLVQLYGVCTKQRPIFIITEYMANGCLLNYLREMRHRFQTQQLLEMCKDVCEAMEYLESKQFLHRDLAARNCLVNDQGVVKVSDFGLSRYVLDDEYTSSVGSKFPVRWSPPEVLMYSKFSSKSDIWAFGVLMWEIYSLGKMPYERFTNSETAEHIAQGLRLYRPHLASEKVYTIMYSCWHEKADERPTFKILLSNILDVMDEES

Sequence of full-length BTK C481S enzyme (Q06187 whole entry C481S): as the sequence (Q06187 whole entry) above, with C481S counted along it

Usually IC50 stands for the concentration needed to halve the response being measured. In the case of `Nc1ncc2c3c1c(-c1ccc(C(=O)Nc4cc(C(F)(F)F)ccn4)cc1)nn3[C@@H]1CCC[C@H](C1)C(=O)NCCCC/C=C/C2` [Example 85a], the IC50 in experiment [1] fell in the range of 0.05 to 0.5 µM; in the experiment on REC-1 T474I cell lines, 0.5 to 10 µM; in experiment [2], 0.1 to 1 µM; in experiment [3] it was 0.005 to 0.05 µM.
With `C[C@@H]1CCn2nc(-c3ccc(C(=O)Nc4cc(C(F)(F)F)ccn4)cc3)c3c(N)ncc(c32)CCCO[C@H](C)C(=O)N1` [Example 113], the IC50 in experiment [1] is 0.005 to 0.05 µM; with REC-1 T474I cell lines it was 0.5 to 10 µM; in experiment [2] it was 1 to 10 µM; in experiment [3], 0.005 to 0.05 µM.
For the molecule `C[C@@H]1CCn2nc(-c3ccc(C(=O)Nc4cc(C(F)(F)F)ccn4)cc3)c3c(N)ncc(c32)CCCCCCC(=O)N1` [Example 121], the IC50 in experiment [1] was < 0.005 µM; with REC-1 T474I cell lines it was 0.5 to 10 µM; in experiment [2], 0.1 to 1 µM; in experiment [3], 0.005 to 0.05 µM.
The matching figures for `Nc1ncc2c3c1c(-c1ccc(C(=O)Nc4cc(C(F)(F)F)ccn4)cc1)nn3[C@@H]1CCC[C@H](C1)NC(=O)CNCCCC2` [Example 127]: < 0.005 µM, 0.5 to 10 µM, 0.1 to 1 µM and < 0.005 µM.
For `Nc1ncc2c3c1c(-c1ccc(C(=O)Nc4ccccn4)cc1)nn3[C@@H]1CCC[C@H](C1)NC(=O)CCCCCC2` [Example 125], in that order: 0.005 to 0.05 µM, 0.5 to 10 µM, 0.1 to 1 µM and 0.005 to 0.05 µM.
For `C[C@@H]1CCn2nc(-c3ccc(C(=O)Nc4cc(C(F)(F)F)ccn4)cc3)c3c(N)ncc(c32)/C=C/CN(C)CCCC(=O)N1` [Example 66], in that order: < 0.005 µM, 0.5 to 10 µM, 1 to 10 µM and < 0.005 µM.
As for `Nc1ncc2c3c1c(-c1ccc(C(=O)Nc4cc(C(F)(F)F)ccn4)cc1)nn3[C@@H]1CCC[C@H](C1)NC(=O)CCCCCC/C=C/C2` [Example 103a], the IC50 is < 0.005 µM in experiment [1], 0.1 to 0.5 µM in the experiment with REC-1 T474I cell lines, 0.1 to 1 µM in experiment [2] and < 0.005 µM in experiment [3].
For `C[C@@H]1CCn2nc(-c3ccc(C(=O)Nc4cc(C(F)(F)F)ccn4)cc3)c3c(N)ncc(c32)C/C=C/CCCC(=O)N1` [Example 109b], the IC50 in experiment [1] was 0.05 to 0.5 µM; in the experiment on REC-1 T474I cell lines, 0.5 to 10 µM; in experiment [2] it was 1 to 10 µM; in experiment [3] it was 0.05 to 0.5 µM.
On to `Nc1ncc2c3c1c(-c1ccc(C(=O)Nc4ccccn4)cc1)nn3[C@@H]1CCC[C@H](C1)NC(=O)CCC/C=C/C2` [Example 99a], for which the IC50 in experiment [1] is 0.05 to 0.5 µM; in the experiment on REC-1 T474I cell lines it was 0.5 to 10 µM; in experiment [2], 1 to 10 µM; in experiment [3], 0.05 to 0.5 µM.
On to `Nc1ncc2c3c1c(-c1ccc(C(=O)Nc4cc(C(F)(F)F)ccn4)cc1)nn3[C@@H]1CCC[C@H](C1)NC(=O)COC/C=C/C2` [Example 97a], for which the IC50 in experiment [1] was in the range of 0.005 to 0.05 µM; with REC-1 T474I cell lines it was 0.5 to 10 µM; in experiment [2] it was 1 to 10 µM; in experiment [3], 0.005 to 0.05 µM.
Turning to `C[C@@H]1CCn2nc(-c3ccc(C(=O)Nc4cc(C(F)(F)F)ccn4)cc3)c3c(N)ncc(c32)CC=CCCCCC(=O)N1` [Example 110], the IC50 in experiment [1] fell in the range of 0.005 to 0.05 µM; in the experiment with REC-1 T474I cell lines, 0.5 to 10 µM; in experiment [2] it was 0.1 to 1 µM; in experiment [3], 0.005 to 0.05 µM.
Regarding `Nc1ncc2c3c1c(-c1ccc(C(=O)Nc4ccccn4)cc1)nn3[C@@H]1CCC[C@H](C1)C(=O)NCCC/C=C\C2` [Example 90], the IC50 in experiment [1] lay in the range of 0.005 to 0.05 µM; in the experiment on REC-1 T474I cell lines it was 0.5 to 10 µM; in experiment [2], 0.1 to 1 µM; in experiment [3], 0.005 to 0.05 µM.
Take `Nc1ncc2c3c1c(-c1ccc(C(=O)Nc4ccccn4)cc1)nn3[C@@H]1CCC[C@H](C1)NC(=O)CC/C=C\C2` [Example 96b]: the IC50 in experiment [1] was 0.005 to 0.05 µM; in the experiment with REC-1 T474I cell lines it was 0.5 to 10 µM; in experiment [2] it was 1 to 10 µM; in experiment [3] it was 0.005 to 0.05 µM.
In the case of `Nc1ncc2c3c1c(-c1ccc(C(=O)Nc4cc(C(F)(F)F)ccn4)cc1)nn3[C@@H]1CCC[C@H](C1)C(=O)NCCC/C=C/C2` [Example 84a], the IC50 fell in the range of 0.005 to 0.05 µM in experiment [1], 0.5 to 10 µM in the experiment on REC-1 T474I cell lines, 0.1 to 1 µM in experiment [2] and 0.005 to 0.05 µM in experiment [3].
As for `Nc1ncc2c3c1c(-c1ccc(C(=O)Nc4ccccn4)cc1)nn3[C@@H]1CCC[C@H](C1)NC(=O)CC/C=C/C2` [Example 96a], the IC50 lay within 0.05 to 0.5 µM in experiment [1], 0.5 to 10 µM in the experiment on REC-1 T474I cell lines, 1 to 10 µM in experiment [2] and 0.05 to 0.5 µM in experiment [3].
Consider `Nc1ncc2c3c1c(-c1ccc(C(=O)Nc4cc(C(F)(F)F)ccn4)cc1)nn3[C@@H]1CCC[C@H](C1)NC(=O)CCC/C=C\C2` [Example 94b], for which the IC50 was < 0.005 µM in experiment [1], 0.5 to 10 µM with REC-1 T474I cell lines, 0.1 to 1 µM in experiment [2] and < 0.005 µM in experiment [3].
As to `Nc1ncc2c3c1c(-c1ccc(C(=O)Nc4cc(C(F)(F)F)ccn4)cc1)nn3[C@@H]1CCC[C@H](C1)NC(=O)CCCNC/C=C\C2` [Example 108], the IC50 is < 0.005 µM in experiment [1], 0.5 to 10 µM in the experiment with REC-1 T474I cell lines, 0.1 to 1 µM in experiment [2] and < 0.005 µM in experiment [3].
Regarding `Nc1ncc2c3c1c(-c1ccc(C(=O)Nc4cc(C(F)(F)F)ccn4)cc1)nn3[C@@H]1CCC[C@H](C1)NC(=O)CCCCNC/C=C/2` [Example 22], the IC50 is < 0.005 µM in experiment [1], 0.5 to 10 µM in the experiment on REC-1 T474I cell lines, 0.1 to 1 µM in experiment [2] and < 0.005 µM in experiment [3].
For the molecule `Nc1ncc2c3c1c(-c1ccc(C(=O)Nc4cc(C(F)(F)F)ccn4)cc1)nn3[C@@H]1CCC[C@H](C1)NC(=O)CCCC/C=C/C2` [Example 98a], the IC50 lay within 0.05 to 0.5 µM in experiment [1], 0.5 to 10 µM in the experiment with REC-1 T474I cell lines, 0.1 to 1 µM in experiment [2] and 0.05 to 0.5 µM in experiment [3].
As to `C[C@@H]1CCn2nc(-c3ccc(C(=O)Nc4cc(C(F)(F)F)ccn4)cc3)c3c(N)ncc(c32)/C=C/CCCCCCCCC(=O)N1` [Example 64], the IC50 in experiment [1] is < 0.005 µM; in the experiment on REC-1 T474I cell lines it was 0.5 to 10 µM; in experiment [2], 0.1 to 1 µM; in experiment [3], 0.005 to 0.05 µM.
The matching figures for `C[C@@H]1CCn2nc(-c3ccc(C(=O)Nc4cc(C(F)(F)F)ccn4)cc3)c3c(N)ncc(c32)C/C=C\CCCC(=O)N1` [Example 109a]: 0.005 to 0.05 µM, 0.5 to 10 µM, 0.1 to 1 µM and 0.005 to 0.05 µM.
For `Nc1ncc2c3c1c(-c1ccc(C(=O)Nc4ccccn4)cc1)nn3[C@@H]1CCC[C@H](C1)C(=O)NCC/C=C\C2` [Example 91], in that order: 0.05 to 0.5 µM, 0.5 to 10 µM, 1 to 10 µM and 0.05 to 0.5 µM.
Turning to `Nc1ncc2c3c1c(-c1ccc(C(=O)Nc4ccccn4)cc1)nn3[C@@H]1CCC[C@H](C1)NC(=O)COC/C=C/C2` [Example 104a], the IC50 in experiment [1] was in the range of 0.05 to 0.5 µM; in the experiment with REC-1 T474I cell lines, 0.5 to 10 µM; in experiment [2], 1 to 10 µM; in experiment [3], 0.05 to 0.5 µM.
Take `C[C@@H]1CCn2nc(-c3ccc(C(=O)Nc4cc(C(F)(F)F)ccn4)cc3)c3c(N)ncc(c32)CCCOCC(=O)N1` [Example 122]: the IC50 in experiment [1] fell in the range of 0.005 to 0.05 µM; in the experiment on REC-1 T474I cell lines, 0.5 to 10 µM; in experiment [2], 0.1 to 1 µM; in experiment [3] it was 0.005 to 0.05 µM.
On to `Nc1ncc2c3c1c(-c1ccc(C(=O)Nc4cc(C(F)(F)F)ccn4)cc1)nn3[C@@H]1CCC[C@H](C1)C(=O)NCCCCCCCCC2` [Example 120], for which the IC50 lay within 0.005 to 0.05 µM in experiment [1], 0.5 to 10 µM with REC-1 T474I cell lines, 0.1 to 1 µM in experiment [2] and 0.005 to 0.05 µM in experiment [3].
